Like-named read-outs stand apart in the source and are kept apart here. Where a SMILES comes first, the peptide text is derived from it. [ ]: non-standard residue; d: D form. The star is where a group is joined. Palmitoyl = CCCCCCCCCCCCCCCC(=O)*; Lauroyl = CCCCCCCCCCCC(=O)*; 12Ado = NCCCCCCCCCCCC(=O)O; Decanoyl = CCCCCCCCCC(=O)*; Octanoyl = CCCCCCCC(=O)*
What was measured:
S. mutans = assay: microbe, parasite or virus in culture; type: cell-based, Streptococcus mutans
Protocol: Staphylococci, Bacilli, Escherichia, Pseudomonas, Acinetobacter, Salmonella and Klebsiella species were grown in Luria Bertani broth (LB; 5 gr/l NaCl, 5 gr/l yeast extract, 10 gr/l tryptone). Enterococci and E. coli ML-35p were grown in Tryptic Soy Broth (TSB). Listeria and Streptococci were grown in Brain Heart Infusion (BHI). All bacteria were grown over-night at 37 °C with shaking. S. mutans 35668 plated on BHI agar for enumeration was grown for 48 hr. S. mutans UA159 was grown in 5% CO2 enriched atmosphere. Fusobacterium and Porphyromonas were grown in Wilkins-Chalgren growth medium and an anaerobic atmosphere.
Minimal inhibitory concentration (MIC) was determined using the microdilution assay. Mid-log-phase bacteria at 5 × 10^5 CFU/ml were incubated in a 96-well plate with serial two-fold dilutions of the tested compound for 18–24 hr at 37 °C (final volume of 200 µl). O.D. at 620 nm was measured (Synergy HT, BioTek Instruments, Winooski, VT, USA), and the MIC was determined as the lowest concentration for which no increase in O.D. was detected.

[1] = Hydrophobicity by C18 RP-HPLC elution; type: physicochemical; conditions: chromatographic, RP-HPLC C18 (Vydac), flow 2 ml/min, linear acetonitrile gradient 1%/min
Protocol: OAKs were synthesized in-house (433 A Peptide Synthesizer; Applied Biosystems, Foster City, CA, USA) by the solid-phase method using 9-fluorenylmethyloxycarbonyl (Fmoc) active-ester chemistry on 4-methylbenzhydrylamine (MBHA) resin. OAKs were then deprotected and cleaved from the resin using trifluoroacetic acid:H2O (95:5) and purified to >95% chromatographic homogeneity by reverse phase high performance liquid chromatography (RP-HPLC) using C18 column (Vydac), a flow rate of 2 ml/min and a linear acetonitrile gradient of 1%/min (Alliance; Waters, Milford, MA, USA). Peaks identity was verified by mass-spectrometry (Xevo G2 Tof; Waters, Milford, MA, USA). Purified OAKs were then lyophilized and kept as dry powder at −20 °C.

GPB and GNB = assay: Effect observed at low concentrations, analog series; type: cell-based; conditions: summary of this and previous studies
Protocol: Table 2 Modulating biophysical properties of a core sequence by conjugating an N-terminal acyl. | column: Effect observed at low concentrations (<3 µM)

E. coli = conditions: microdilution; cited from earlier work
From the text: Table 2 Modulating biophysical properties of a core sequence by conjugating an N-terminal acyl. | column: MIC^c (µM) / E.c.

S. mutans ATCC 35668 = assay: Bactericidal kinetics (time-kill); type: cell-based, Streptococcus mutans; conditions: time-kill kinetics in BHI
Protocol: Bactericidal kinetics was assessed by incubating 5 × 10^5 CFU/ml of mid-log-phase bacteria with the OAK for 3 hr at 37 °C with shaking. Aliquots were taken at t = 0, 0.5, 1, 2 and 3 hr, subjected to serial 10-fold dilutions in saline (NaCl = 0.85%) and plated for enumeration after 24–48 hr incubation at 37 °C.

[2] = test system: S. mutans ATCC 35668 biofilm; assay: Anti-biofilm activity on pre-formed biofilm; type: cell-based, Streptococcus mutans; conditions: ≥0.5 mM, within one hour of exposure, inoculum 10^9 CFU/ml
Protocol: Anti-biofilm activity was evaluated against established biofilms in 96-well plates as follows. 200 µl of mid-log-phase S. mutans 35668 at 5 × 10^5 CFU/ml in BHI containing 2% sucrose were placed in each well, and plates were incubated for 24 hr at 37 °C without shaking. Unattached cells were removed by decanting the plates and biofilms were washed three times with milliQ water. Solutions of the tested compounds were placed on the biofilms for up to 3 hr at 37 °C without shaking. Plates were decanted in 0.5 hr intervals and biofilms were washed three times with milliQ water to remove any compound residues. Biofilms were scraped from the bottom of the wells, suspended in BHI and sonicated for 5 min in a sonication bath, subjected to serial 10-fold dilutions in saline and plated on BHI agar for enumeration.

bacteria = conditions: cited from earlier work
From the text: A variety of strategies were proposed to generate chemical mimics of AMPs to alleviate complications associated with peptide drugs, [31]. AMP-mimics may also be beneficial in helping to improve understanding the complex molecular basis for AMPs function(s) owing to their relative molecular/structural simplicity. Namely, while charge and hydrophobicity represent most critical factors influencing AMP properties, it is often challenging to identify the respective optimal proportions for controlling potency or selectivity. For instance, excess hydrophobicity might promote self-assembly in aque ...

[3] = under similar conditions; increased with increasing hydrophobicity; cited from earlier work

| Compound | MIC (S. mutans) [µM] | H, hydrophobicity, defined as % acetonitrile eluent in C18 HPLC column [1] [%] | Effect observed at low concentrations (<3 µM) (GPB and GNB) | MIC E.c. (E. coli) | higher potency (MIC) than C14KKc12K (S. mutans; MIC of CHX versus C14KKc12K on S. mutans) [fold] | MIC (S. mutans; Streptococcus mutans, microdilution, BHI, 18–24 hr, 37 °C) [µM] | multiples of MIC at which bactericidal (S. mutans ATCC 35668) | killing of the initial inoculum in preformed biofilm [2] [%] | antibacterial activity (bacteria) | binding affinity to LPS [3] |
| --- | --- | --- | --- | --- | --- | --- | --- | --- | --- | --- |
| CCCCCCCCCCCCCCCC(=O)N[C@@H](CCCCN)C(=O)N[C@@H](CCCCN)C(=O)NCCCCCCCCCCCC(=O)N[C@@H](CCCCN)C(N)=O [C16KKc12K] (Palmitoyl-KK[12Ado]K-NH2) | 1.56 | 62 | Trend reversal (reduced potency) due to excess hydrophobicity as self-assembly approaches the critical aggregation concentration | 25[24] µM | – | – | – | – | – | – |
| [H]/N=C(\N/C(=N/[H])NCCCCCCNC(=N)NC(=N)Nc1ccc(Cl)cc1)Nc1ccc(Cl)cc1 [CHX, chlorhexidine, reference compound] | – | – | – | – | ~3 | 0.3 | 40 multiples of its MIC | > 99 | – | – |
| NCCCC[C@H](NC(=O)CCCCCCCCCCCNC(=O)[C@H](CCCCN)NC(=O)[C@@H](N)CCCCN)C(N)=O [H-KKc12K-NH2] (H-KK[12Ado]K-NH2) | >50 | 27 | Not observed (normal growth) | >50[40] µM | – | – | – | – | inactive | – |
| CCCCCCCCCCCC(=O)N[C@@H](CCCCN)C(=O)N[C@@H](CCCCN)C(=O)NCCCCCCCCCCCC(=O)N[C@@H](CCCCN)C(N)=O [C12KKc12K] (Lauroyl-KK[12Ado]K-NH2) | 1.56 | 51 | Impairing membrane damages leading to a bacteriostatic mode of action in GPB; OM permeabilization & delayed growth in GNB | 16[40] µM | – | – | – | – | – | lower than that of C14KKc12K |
| CCCCCCCCCC(=O)N[C@@H](CCCCN)C(=O)N[C@@H](CCCCN)C(=O)NCCCCCCCCCCCC(=O)N[C@@H](CCCCN)C(N)=O [C10KKc12K] (Decanoyl-KK[12Ado]K-NH2) | 6.25 | 46 | Weak growth inhibition of some GPB and transient membrane damages including partial depolarization of CM (slight delay in GNB growth) | >50[40] µM | – | – | – | – | essentially inactive | lower than that of C14KKc12K |
| CCCCCCCC(=O)N[C@@H](CCCCN)C(=O)N[C@@H](CCCCN)C(=O)NCCCCCCCCCCCC(=O)N[C@@H](CCCCN)C(N)=O [C8KKc12K] (Octanoyl-KK[12Ado]K-NH2) | 50 | 41 | Weak perturbations of GNB outer membrane (normal growth) | >50[40] µM | – | – | – | – | essentially inactive | lower than that of C14KKc12K |
